Each compound was assayed against T1, DNA-PK kinase (Homo sapiens, UniProt P78527) (assay: Inhibition assay of DNA-PK kinase (Promega kit, ADP-Glo chemiluminescence)). Conditions: 50 µM ATP, 37° C., 60 min; read-out: IC50 (nM), inhibitory activity on DNA-PK kinase.
T1 construct: purchased Promega V4107
Type: biochemical
Protocol: The inhibitory activity of the compounds on DNA-PK kinase was measured by using a DNA-PK kinase assay kit (purchased from Promega, Cat.#: V4107, Lot: 0000366495). The results were quantified by chemiluminescence, and the detailed experimental protocol was as follows: • i. An ADP-fluorescence standard curve over a range of concentrations was plotted according to the kit instructions; • ii. […] The mixtures were mixed well, centrifuged (1000 rpm, 30 s), and incubated at 37° C. for 60 min; • iv. 5 µL of ADP-Glo™ Reagent was added to stop the reaction, which was then mixed well, centrifuged (1000 rpm, 30 s), and incubated at room temperature for 40 min; • v. 10 µL Kinase Detection Reagent was added, and the mixture was mixed well by shaking, centrifuged (1000 rpm, 30 s), and incubated at room temperature for 30 min; • vi. The […] was measured by using a microplate reader (Thermo fisher, Varioskan LUX).
For `CO[C@H]1CC[C@H](n2c(=O)n(C)c3cnc(Nc4cc(F)c(C(N)=O)cc4C)nc32)CC1` [Compound 71, 2-Fluoro-4-((9-(trans-4-methoxycyclohexyl)-7-methyl-8-oxo-8,9-dihydro-7H-purin-2-yl)amino)-5-methylbenzamide], the IC50 was 2.17 nM. `Cc1cc(C(N)=O)c(F)cc1Nc1ncc2c(n1)n(C1C[C@H]3CC(O)C[C@H]3C1)c(=O)n2C` (stereo partly drawn) [Compound 84, 2-Fluoro-4-((9-((3aR,6aS)-5-hydroxyoctahydropentalen-2-yl)-7-methyl-8-oxo-8,9-dihydro-7H-purin-2-yl)amino)-5-methylbenzamide] was tested, and the IC50 was 0.24 nM. `Cc1cc(C(N)=O)c(F)cc1Nc1ncc2c(n1)n(C1CCC3(CC1)COC3)c(=O)n2C` [Compound 86, 2-Fluoro-5-methyl-4-((7-methyl-8-oxo-9-(2-oxaspiro[3.5]nonan-7-yl)-8,9-dihydro-7H-purin-2-yl)amino)benzamide] gave an IC50 of 0.44 nM. Work on `Cc1cc(C(N)=O)c(F)cc1Nc1ncc2c(n1)n(C1CC3(COC3)C1)c(=O)n2C` [Compound 89, 2-Fluoro-5-methyl-4-((7-methyl-8-oxo-9-(2-oxaspiro[3.3]heptan-6-yl)-8,9-dihydro-7H-purin-2-yl)amino)benzamide] yielded an IC50 of 3.83 nM. Work on `Cc1cc(C(N)=O)c(F)cc1Nc1ncc2c(n1)n(C13CCC(C#N)(CC1)CC3)c(=O)n2C` [Compound 90, 4-((9-(4-cyanobicyclo[2.2.2]octan-1-yl)-7-methyl-8-oxo-8,9-dihydro-7H-purin-2-yl)amino)-2-fluoro-5-methylbenzamide] yielded an IC50 of 10.8 nM. `Cc1cc(C(N)=O)c(F)cc1Nc1ncc2c(n1)n(C1CCCC(C)(O)C1)c(=O)n2C` (stereo not shown) [Compound 91, 2-Fluoro-4-((9-(3-hydroxy-3-methylcyclohexyl)-7-methyl-8-oxo-8,9-dihydro-7H-purin-2-yl)amino)-5-methylbenzamide] showed an IC50 of 2.44 nM. `Cc1cc(C(N)=O)c(F)cc1Nc1ncc2c(n1)n(C1CCC(C)(C#N)CC1)c(=O)n2C` (stereo not shown) [Compound 92, 4-((9-(4-cyano-4-methylcyclohexyl)-7-methyl-8-oxo-8,9-dihydro-7H-purin-2-yl)amino)-2-fluoro-5-methylbenzamide] was tested, and the IC50 was 0.02 nM. Compound `Cc1cc(C(N)=O)c(F)cc1Nc1ncc2c(n1)n([C@H]1C[C@@H](O)C1)c(=O)n2C` [Compound 94, 2-Fluoro-4-((9-(cis-3-hydroxycyclobutyl)-7-methyl-8-oxo-8,9-dihydro-7H-purin-2-yl)amino)-5-methylbenzamide] has an IC50 of 7.2 nM. Compound `Cc1cc(C(N)=O)c(F)cc1Nc1ncc2c(n1)n(C1CCCC(O)C1)c(=O)n2C` (stereo not shown) [Compound 95, 2-Fluoro-4-((9-(-3-hydroxycyclohexyl)-7-methyl-8-oxo-8,9-dihydro-7H-purin-2-yl)amino)-5-methylbenzamide] has an IC50 of 0.6 nM. Compound `Cc1cc(C(N)=O)c(F)cc1Nc1ncc2c(n1)n(C1CCC(CO)OC1)c(=O)n2C` (stereo not shown) [Compound 96, 2-Fluoro-4-((9-(6-(hydroxymethyl)tetrahydro-2H-pyran-3-yl)-7-methyl-8-oxo-8,9-dihydro-7H-purin-2-yl)amino)-5-methylbenzamide] has an IC50 of 3.89 nM. `Cc1cc(C(N)=O)c(F)cc1Nc1ncc2c(n1)n(C1CC3(CC(CO)C3)C1)c(=O)n2C` (stereo not shown) [Compound 97, 2-Fluoro-4-((9-(6-(hydroxymethyl)spiro[3.3]heptan-2-yl)-7-methyl-8-oxo-8,9-dihydro-7H-purin-2-yl)amino)-5-methylbenzamide] showed an IC50 of 0.68 nM. `Cc1cc(C#N)ccc1Nc1ncc2c(n1)n(C1CC3CC(O)CC3C1)c(=O)n2C` (stereo not shown) [Compound 98, 4-[(9-(5-hydroxy-octahydropentalen-2-yl)-7-methyl-8-oxo-8,9-dihydro-7H-purin-2-yl)amino]-3-methylbenzonitrile] showed an IC50 of 4.01 nM. Work on `Cc1cc(C(N)=O)c(F)cc1Nc1ncc2c(n1)n(C1C[C@@H]3COC[C@H]3C1)c(=O)n2C` [Compound 99, 2-fluoro-4-((9-((3aS,6aS)-hexahydro-1H-cyclopenta[c]furan-5-yl)-7-methyl-8-oxo-8,9-dihydro-7H-purin-2-yl)amino)-5-methylbenzamide] yielded an IC50 of 2.13 nM. `Cc1cc(C#N)ccc1Nc1ncc2c(n1)n(C1CC3COCC3C1)c(=O)n2C` (stereo not shown) [Compound 100, 4-((9-(hexahydro-1H-cyclopenta[c]furan-5-yl)-7-methyl-8-oxo-8,9-dihydro-7H-purin-2-yl)amino)-3-methylbenzonitrile] gave an IC50 of 2.2 nM. With `Cc1cc(C#N)ccc1Nc1ncc2c(n1)n(C1CCS(=O)(=O)CC1)c(=O)n2C` [Compound 101, 4-((9-(1,1-dioxidotetrahydro-2H-thiopyran-4-yl)-7-methyl-8-oxo-8,9-dihydro-7H-purin-2-yl)amino)-3-methylbenzonitrile] the IC50 was 9.6 nM. In the case of `[2H]C([2H])([2H])C([2H])([2H])n1c(=O)n(C2CCOCC2)c2nc(Nc3cc(F)c(C(N)=O)cc3C)ncc21` [Compound 105, 4-((7-(ethyl-d5)-8-oxo-9-(tetrahydro-2H-pyran-4-yl)-8,9-dihydro-7H-purin-2-yl)amino)-2-fluoro-5-methylbenzamide], the IC50 is reported as 5.54 nM. In the case of `Cc1cc(C(N)=O)c(F)cc1Nc1ncc2c(n1)n(C1CCOCC1)c(=O)n2CC(F)F` [Compound 106, 4-((7-(2,2-difluoroethyl)-8-oxo-9-(tetrahydro-2H-pyran-4-yl)-8,9-dihydro-7H-purin-2-yl)amino)-2-fluoro-5-methylbenzamide], the IC50 is reported as 6.75 nM. `CCn1c(=O)n([C@H]2CCOC2)c2nc(Nc3cc(F)c(C(N)=O)cc3C)ncc21` [Compound 107, (S)((7-Ethyl-8-oxo-9-(tetrahydrofuran-3-yl)-8,9-dihydro-7H-purin-2-yl)amino)-2-fluoro-5-methylbenzamide] was tested, and the IC50 was 10.1 nM. For `Cc1cc(C(N)=O)c(F)cc1Nc1ncc2c(n1)n(C1CCOCC1)c(=O)n2CCF` [Compound 109, 2-Fluoro-4-((7-(2-fluoroethyl)-8-oxo-9-(tetrahydro-2H-pyran-4-yl)-8,9-dihydro-7H-purin-2-yl)amino)-5-methylbenzamide], the IC50 was 5.54 nM.

Reference: patent US20230165867A1 (CHENGDU BAIYU PHARMACEUTICAL CO., LTD., priority 2020, published 2023)
